Data from PubChem BioAssay (NCI).
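Growth conditions: 96-well plates. Treatment: test compound, 48 hours, 5 concentrations. Analysis: linear interpolation between bracketing concentrations; unreached endpoints set to highest concentration. Abbreviation: GI50, concentration required for 50% inhibition of growth. The concentration for full growth arrest is given as TGI.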

Experiments:
Assay in all cases: NCI anticancer screen, dose series, 48 h
A549 NSCLC = system: A549 NSCLC
MDA-MB-435 = system: MDA-MB-435
NCI-H226 lung = system: NCI-H226 lung
NCI-H23 lung = system: NCI-H23 lung
PC-3 prostate = system: PC-3 prostate
SF-539 CNS = system: SF-539 CNS
SK-OV-3 ovarian = system: SK-OV-3 ovarian
SN12C renal = system: SN12C renal
DLD-1 colon = system: DLD-1 colon
DMS 114 small cell lung = system: DMS 114 small cell lung
KM20L2 colon = system: KM20L2 colon
SNB-78 CNS = system: SNB-78 CNS

Q: For `C=C1C(=O)O[C@H]2[C@H]1CC/C(CNC(=O)Cc1c[nH]c3ccccc13)=C\CC[C@@]1(C)O[C@@H]21`, which GI50 (A549 NSCLC) is on record?
A: 14.9 µM

Q: What about the TGI (A549 NSCLC) of the same molecule?
A: 33.3 µM

Q: What about the GI50 (MDA-MB-435) of the same molecule?
A: 0.862 µM

Q: And the TGI (MDA-MB-435)?
A: 13.4 µM

Q: What about the GI50 (NCI-H226 lung) of the same molecule?
A: 2.42 µM

Q: And the TGI (NCI-H226 lung)?
A: 7.81 µM

Q: And the GI50 (NCI-H23 lung)?
A: 3.54 µM

Q: And the TGI (NCI-H23 lung)?
A: 18.6 µM

Q: And the GI50 (PC-3 prostate)?
A: 6.36 µM

Q: And the TGI (PC-3 prostate)?
A: 21.1 µM

Q: What about the GI50 (SF-539 CNS) of the same molecule?
A: 1.92 µM

Q: And the TGI (SF-539 CNS)?
A: 9.1 µM

Q: What about the GI50 (SK-OV-3 ovarian) of the same molecule?
A: 17.6 µM

Q: What about the TGI (SK-OV-3 ovarian) of the same molecule?
A: 31.7 µM

Q: What about the GI50 (SN12C renal) of the same molecule?
A: 1.91 µM

Q: And the TGI (SN12C renal)?
A: 18.3 µM

Q: For `COc1cc(C(=O)/C=C/c2c(C)n([O-])c3ccc(C)cc3[n+]2=O)cc(OC)c1OC`, which GI50 (A549 NSCLC) is on record?
A: 15.7 µM

Q: And the TGI (A549 NSCLC)?
A: 82.1 µM

Q: What about the GI50 (MDA-MB-435) of the same molecule?
A: 6.47 µM

Q: What about the TGI (MDA-MB-435) of the same molecule?
A: > 63.4 µM

Q: What about the GI50 (NCI-H226 lung) of the same molecule?
A: 30.6 µM

Q: And the TGI (NCI-H226 lung)?
A: > 100 µM

Q: What about the GI50 (NCI-H23 lung) of the same molecule?
A: 10.4 µM

Q: And the TGI (NCI-H23 lung)?
A: 26.4 µM

Q: And the GI50 (PC-3 prostate)?
A: 12.9 µM

Q: And the TGI (PC-3 prostate)?
A: > 59.3 µM

Q: What about the GI50 (SF-539 CNS) of the same molecule?
A: 2.84 µM

Q: And the TGI (SF-539 CNS)?
A: 7.12 µM

Q: What about the GI50 (SK-OV-3 ovarian) of the same molecule?
A: 32.7 µM

Q: What about the TGI (SK-OV-3 ovarian) of the same molecule?
A: > 100 µM

Q: And the TGI (SN12C renal)?
A: 35.7 µM

Q: `N=C(N)c1ccc(OCc2cccc(COc3ccc(C(=N)N)cc3)c2)cc1` was tested. Which GI50 (A549 NSCLC) did it give?
A: 19.3 µM

Q: And the TGI (A549 NSCLC)?
A: > 100 µM

Q: And the GI50 (MDA-MB-435)?
A: 4.01 µM

Q: And the TGI (MDA-MB-435)?
A: 11.8 µM

Q: And the GI50 (NCI-H226 lung)?
A: 7.2 µM

Q: And the TGI (NCI-H226 lung)?
A: 23.1 µM

Q: What about the GI50 (NCI-H23 lung) of the same molecule?
A: 8.59 µM

Q: What about the TGI (NCI-H23 lung) of the same molecule?
A: 27.9 µM

Q: What about the GI50 (PC-3 prostate) of the same molecule?
A: 12.4 µM

Q: And the TGI (PC-3 prostate)?
A: 25.8 µM

Q: What about the GI50 (SF-539 CNS) of the same molecule?
A: 1.92 µM

Q: And the TGI (SF-539 CNS)?
A: 5.1 µM

Q: And the GI50 (SK-OV-3 ovarian)?
A: 18.4 µM

Q: And the TGI (SK-OV-3 ovarian)?
A: 50.9 µM

Q: What about the GI50 (SN12C renal) of the same molecule?
A: 2.68 µM

Q: And the TGI (SN12C renal)?
A: 13.1 µM

Q: `Cc1ccccc1NC(=O)C(=O)C(C#N)c1ccc(Cl)cc1` (stereo unspecified) was tested. Which TGI (A549 NSCLC) did it give?
A: > 100 µM

Q: What about the TGI (DLD-1 colon) of the same molecule?
A: > 100 µM

Q: What about the TGI (DMS 114 small cell lung) of the same molecule?
A: > 100 µM

Q: And the TGI (KM20L2 colon)?
A: > 100 µM

Q: And the TGI (NCI-H226 lung)?
A: > 100 µM

Q: And the TGI (NCI-H23 lung)?
A: > 100 µM

Q: What about the TGI (SF-539 CNS) of the same molecule?
A: 83.5 µM

Q: What about the TGI (SK-OV-3 ovarian) of the same molecule?
A: > 100 µM

Q: What about the TGI (SN12C renal) of the same molecule?
A: > 100 µM

Q: And the TGI (SNB-78 CNS)?
A: > 100 µM

Q: How did the TGI (A549 NSCLC) turn out when `O=C(O)CCNc1ccccc1C(=O)O` was run?
A: > 100 µM

Q: What about the TGI (MDA-MB-435) of the same molecule?
A: > 100 µM

Q: What about the TGI (NCI-H226 lung) of the same molecule?
A: > 100 µM

Q: And the TGI (NCI-H23 lung)?
A: > 100 µM

Q: And the TGI (PC-3 prostate)?
A: > 100 µM

Q: What about the TGI (SF-539 CNS) of the same molecule?
A: > 100 µM

Q: And the TGI (SK-OV-3 ovarian)?
A: > 100 µM

Q: What about the TGI (SN12C renal) of the same molecule?
A: > 100 µM

Q: Which GI50 (A549 NSCLC) does the source give for `Clc1ccc(CSC(Cn2ccnc2)c2ccc(Cl)cc2Cl)cc1` (stereo unspecified) here?
A: 1.42 µM

Q: What about the TGI (A549 NSCLC) of the same molecule?
A: 3.13 µM

Q: And the GI50 (MDA-MB-435)?
A: 1.71 µM

Q: And the TGI (MDA-MB-435)?
A: 3.33 µM

Q: What about the GI50 (NCI-H226 lung) of the same molecule?
A: 1.38 µM

Q: And the TGI (NCI-H226 lung)?
A: 2.84 µM

Q: What about the GI50 (NCI-H23 lung) of the same molecule?
A: 1.5 µM

Q: And the TGI (NCI-H23 lung)?
A: 3.6 µM

Q: What about the GI50 (PC-3 prostate) of the same molecule?
A: 1.21 µM

Q: What about the TGI (PC-3 prostate) of the same molecule?
A: 3.61 µM

Q: What about the GI50 (SF-539 CNS) of the same molecule?
A: 1.73 µM

Q: And the TGI (SF-539 CNS)?
A: 3.36 µM

Q: And the GI50 (SK-OV-3 ovarian)?
A: 1.7 µM

Q: And the TGI (SK-OV-3 ovarian)?
A: 3.91 µM

Q: What about the GI50 (SN12C renal) of the same molecule?
A: 1.53 µM

Q: What about the TGI (SN12C renal) of the same molecule?
A: 2.87 µM

Q: `CN1N=CSC12C(=O)N(c1ccc(Cl)cc1)C(=O)N2c1ccc(Cl)cc1` (stereo unspecified) was tested. Which TGI (A549 NSCLC) did it give?
A: > 100 µM

Q: And the TGI (DLD-1 colon)?
A: > 100 µM

Q: What about the TGI (KM20L2 colon) of the same molecule?
A: > 100 µM

Q: And the TGI (NCI-H226 lung)?
A: 8.66 µM

Q: And the TGI (NCI-H23 lung)?
A: 5.14 µM

Q: And the TGI (SF-539 CNS)?
A: > 100 µM

Q: What about the TGI (SK-OV-3 ovarian) of the same molecule?
A: 32 µM

Q: What about the TGI (SN12C renal) of the same molecule?
A: > 100 µM

Q: And the TGI (SNB-78 CNS)?
A: > 100 µM

Q: Which results are given for `O=C(NC1CCN(Cc2ccccc2)CC1)c1cc(-c2ccncc2)nc2ccc(Cl)cc12`?
A: GI50 (A549 NSCLC): 10.6 µM; TGI (A549 NSCLC): 54.2 µM; GI50 (MDA-MB-435): 15 µM; TGI (MDA-MB-435): > 88.7 µM; GI50 (NCI-H226 lung): 30.2 µM; TGI (NCI-H226 lung): > 100 µM; GI50 (NCI-H23 lung): 43.5 µM; TGI (NCI-H23 lung): > 100 µM; GI50 (PC-3 prostate): 13.6 µM; TGI (PC-3 prostate): > 100 µM; GI50 (SF-539 CNS): 13.1 µM; TGI (SF-539 CNS): 35.9 µM; GI50 (SK-OV-3 ovarian): 23.3 µM; TGI (SK-OV-3 ovarian): > 100 µM; GI50 (SN12C renal): 35.6 µM; TGI (SN12C renal): > 100 µM
